Experimental data as given in PubChem BioAssay (NCI).
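Growth conditions: 96-well plates. Treatment: test compound, 48 hours, 5 concentrations. Analysis: linear interpolation between bracketing concentrations; unreached endpoints set to highest concentration. TGI denotes the concentration required for complete inhibition of growth.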

Assays:
Assay in all cases: inhibition of tumour cell growth, NCI panel, 48 h
786-0 renal = tested on: 786-0 renal
A498 renal = tested on: A498 renal
A549 NSCLC = tested on: A549 NSCLC
ACHN renal = tested on: ACHN renal
CAKI-1 renal = tested on: CAKI-1 renal
CCRF-CEM leukemia = tested on: CCRF-CEM leukemia
COLO 205 colon = tested on: COLO 205 colon
DLD-1 colon = tested on: DLD-1 colon
DMS 114 small cell lung = tested on: DMS 114 small cell lung
EKVX NSCLC = tested on: EKVX NSCLC
HCC-2998 colon = tested on: HCC-2998 colon
HCT-116 colon = tested on: HCT-116 colon
HCT-15 colon = tested on: HCT-15 colon
HL-60(TB) leukemia = tested on: HL-60(TB) leukemia
HOP-18 NSCLC = tested on: HOP-18 NSCLC
HOP-62 NSCLC = tested on: HOP-62 NSCLC
HOP-92 NSCLC = tested on: HOP-92 NSCLC
HT29 colon = tested on: HT29 colon
IGROV1 ovarian = tested on: IGROV1 ovarian
K-562 leukemia = tested on: K-562 leukemia
KM12 colon = tested on: KM12 colon
KM20L2 colon = tested on: KM20L2 colon
LOX IMVI melanoma = tested on: LOX IMVI melanoma
LXFL 529 NSCLC = tested on: LXFL 529 NSCLC
M14 melanoma = tested on: M14 melanoma
M19-MEL melanoma = tested on: M19-MEL melanoma
MALME-3M melanoma = tested on: MALME-3M melanoma
MOLT-4 leukemia = tested on: MOLT-4 leukemia
NCI-H23 lung = tested on: NCI-H23 lung
NCI-H460 lung = tested on: NCI-H460 lung
NCI-H522 lung = tested on: NCI-H522 lung
OVCAR-4 ovarian = tested on: OVCAR-4 ovarian
OVCAR-5 ovarian = tested on: OVCAR-5 ovarian
OVCAR-8 ovarian = tested on: OVCAR-8 ovarian
RPMI-8226 leukemia = tested on: RPMI-8226 leukemia
RXF 393 renal = tested on: RXF 393 renal
RXF-631 renal = tested on: RXF-631 renal
SF-268 CNS = tested on: SF-268 CNS
SF-295 CNS = tested on: SF-295 CNS
SF-539 CNS = tested on: SF-539 CNS
SK-MEL-2 melanoma = tested on: SK-MEL-2 melanoma
SK-MEL-28 melanoma = tested on: SK-MEL-28 melanoma
SK-MEL-5 melanoma = tested on: SK-MEL-5 melanoma
SK-OV-3 ovarian = tested on: SK-OV-3 ovarian
SN12C renal = tested on: SN12C renal
SNB-19 CNS = tested on: SNB-19 CNS
SNB-75 CNS = tested on: SNB-75 CNS
SR leukemia = tested on: SR leukemia
SW-620 colon = tested on: SW-620 colon
TK-10 renal = tested on: TK-10 renal
U251 CNS = tested on: U251 CNS
UACC-257 melanoma = tested on: UACC-257 melanoma
UACC-62 melanoma = tested on: UACC-62 melanoma
UO-31 renal = tested on: UO-31 renal
XF 498 CNS = tested on: XF 498 CNS
DMS 273 small cell lung = tested on: DMS 273 small cell lung
OVCAR-3 ovarian = tested on: OVCAR-3 ovarian

Measured: TGI

CN(C)CCc1ccc(Cl)cc1Cl
not listed: DMS 273 small cell lung | OVCAR-3 ovarian
> 100 µM: all other assays above

CN(CC(=O)O)S(=O)(=O)c1ccc(F)cc1
not listed: DMS 114 small cell lung | HCT-116 colon | HOP-62 NSCLC | SR leukemia
> 100 µM: all other assays above
